US4548750A, “Pyrimido[4,5-d][2]benzazepines useful as sedatives and anxiolytic agents” (Hoffmann-La Roche Inc., priority 1983, dated 1985)

How the values were obtained:
Cats = assay: Unanesthetized Cat (minimum symptoms, usually ataxia); type: in vivo; details: Felis catus, po, cats treated orally
Description: Cats are treated orally and observed for minimum symptoms--usually ataxia. One cat is used at a dose of 50 mg/kg. If activity is present, up to three cats/dose are used. Results are given as minimum effective dose.

Toxicity (LD50) = details: in vivo; PO; species not given
male mice = assay: Inclined Screen (paralyzing effects causing mice to slide off the screen); type: in vivo; details: Mus musculus; groups of 6 male mice; at least 4 hours observation; maximum dose 500 mg/kg; read-out: Inclined Screen (PD50)
Description: Groups of 6 male mice are given the test drug (maximum dose of 500 mg/kg) and then are left on the inclined screen at least 4 hours for observation of paralyzing effects severe enough to cause them to slide off the screen. If activity is observed, additional doses are taken until at least two are reached at which some, but not all of the animals slide off the screen. Doses at which mice fall off the screen due to toxicity or excitation are not included in the calculation of PD50.

mice = assay: Footshock (blocking of footshock-induced fighting in pairs of mice); type: in vivo; details: Mus musculus; pairs of mice pretreated 1 hour prior to second shocking; 3 out of 3 pairs must be blocked from fighting; maximum dose 100 mg/kg
Description: A pair of mice is confined under a one liter beaker placed on a grid which presents shock to the feet. At least 5 fighting episodes are elicited in a two-minute period. Pairs of mice are marked and pretreated 1 hour prior to a second shocking. Logarithmic dose intervals are utilized up to a maximum of 100 mg/kg. At the 100% blocking dose, 3 out of 3 pairs must be blocked from fighting.

Structure (SMILES): Cc1nc(Cl)c2c(n1)CN=C(c1ccccc1)c1cc(Cl)ccc1-2 [1,9-Dichloro-3-methyl-7-phenyl-5H-pyrimido[4,5-d][2]benzazepine]
- minimal effective dose (Cats): 10 mg/kg
- LD50 (Toxicity (LD50)): > 1000 mg/kg
- ED50 (male mice): 400 mg/kg
- ED100 (mice): 10 mg/kg
